Measured values: patent publication US6486185B1, “3-heteroarylidene-2-indolinone protein kinase inhibitors” (Sugen, Inc., priority 1997, dated 2002)

Assays:
FLK-1R = biological target: T1, FLK-1R (Mus musculus, UniProt P35918); assay: FLK-1 receptor ELISA in cells engineered to express Flk-1; assay type: cell-based; details: 50% inhibition of PTK activity over control
T1 construct: expressed in transfected cells; host or cells: NIH3T3 C7#3
Protocol: (§1) The cellular/catalytic assays described herein are performed in an ELISA format. The general procedure is a follows: a compound is introduced to cells expressing the test kinase, either naturally or recombinantly, for some period of time after which, if the test kinase is a receptor, a ligand known to activate the receptor's activity is added. The cells are lysed and the lysate is transferred to the wells of an ELISA plate previously coated with a specific antibody recognizing the substrate of the enzymatic phosphorylation reaction. Non-substrate components of the cell lysate are washed away and the amount of phosphorylation on the substrate is detected with an antibody specifically recognizing phosphotyrosine compared with control cells that were not contacted with a test compound.
An ELISA assay is conducted to measure the kinase activity of the FLK-1 receptor and more specifically, the inhibition or activation of TK activity on the FLK-1 receptor. Specifically, the following assay can be conducted to measure kinase activity of the FLK-1 receptor in cells genetically engineered to express Flk-1.
The following reagents and supplies are used:
a. Corning 96-well ELISA plates (Corning Catalog No. 25805-96);
b. Cappel goat anti-rabbit IgG (catalog no. 55641);
c. PBS (Gibco Catalog No. 450-1300EB);
d. TBSW Buffer (50 mM Tris (pH 7.2), 150 mM NaCl and 0.1% Tween-20);
e. Ethanolamine stock (10% ethanolamine (pH 7.0), stored at 4° C.);
f. HNTG buffer (20 mM HEPES buffer (pH 7.5), 150 mM NaCl, 0.2% Triton X-100, and 10% glycerol);
g. EDTA (0.5 M (pH 7.0) as a 100×stock);
h. Sodium orthovanadate (0.5 M as a 100×stock);
i. Sodium pyrophosphate (0.2 M as a 100×stock);
j. NUNC 96 well V bottom polypropylene plates (Applied Scientific Catalog No. AS-72092);
k. NIH3T3 C7#3 Cells (FLK-1 expressing cells)
l. DMEM with 1×high glucose L-Glutamine (catalog No. 11965-050);
n. L-glutamine, Gibco (catalog no. 25030-016);
o. VEGF, PeproTech, Inc. (catalog no. 100-20) (kept as 1 μg/100 μL stock in Milli-Q dH2O and stored at −20° C.;
p. Affinity purified anti-FLK-1 antiserum;
q. UB40 monoclonal antibody specific for phosphotyrosine (see, Fendley, et al., 1990, Cancer Research 50:1550-1558);
r. EIA grade Goat anti-mouse IgG-POD (BioRad catalog no. 172-1011);
s. 2,2-azino-bis(3-ethylbenz-thiazoline-6-sulfonic acid (ABTS) solution (100 mM citric acid (anhydrous), 250 mM Na2HPO4 (pH 4.0), 0.5 mg/mL ABTS (Sigma catalog no. A-1888)), solution should be stored in dark at 4° C. until ready for use;
t. H2O2 (30% solution) (Fisher catalog no. H325);
u. ABTS/H2O2 (15 mL ABTS solution, 2 μL H2O2) prepared 5 minutes before use and left at room temperature;
v. 0.2 M HCl stock in H2O;
w. dimethylsulfoxide (100%)(Sigma Catalog No. D-8418); and
y. Trypsin-EDTA (Gibco BRL Catalog No. 25200-049).
The following protocol can be used for conducting the assay:
1. Coat Corning 96-well ELISA plates with 1.0 μg per well Cappel Anti-rabbit IgG antibody in 0.1 M Na2CO3 pH 9.6. Bring final volume to 150 μL per well. Coat plates overnight at 4° C. Plates can be kept up to two weeks when stored at 4° C.
2. Grow cells in Growth media(DMEM, supplemented with 2.0 mM L-Glutamine, 10% FBS) in suitable culture dishes until confluent at 37° C., 5% CO2.
3. Harvest cells by trypsinization and seed in Corning 25850 polystyrene 96-well round bottom cell plates, 25.000 cells/well in 200 μL of growth media.
4. Grow cells at least one day at 37° C., 5% CO2.
5. Wash cells with D-PBS 1×.
6. Add 200 μL/well of starvation media (DMEM, 2.0 mM 1-Glutamine, 0.1% FBS). Incubate overnight at 37° C., 5% CO2.
7. Dilute Compounds 1:20 in polypropylene 96 well plates using starvation media. Dilute dimethylsulfoxide 1:20 for use in control wells.
8. Remove starvation media from 96 well cell culture plates and add 162 μL of fresh starvation media to each well.
9. […]

PDGFR = PDGFR (Homo sapiens, UniProt P09619); assay: PDGF-R ELISA (cellular kinase assay); assay type: cell-based; details: 50% inhibition of PTK activity over control
Chain of PDGFR (P09619 33-1106): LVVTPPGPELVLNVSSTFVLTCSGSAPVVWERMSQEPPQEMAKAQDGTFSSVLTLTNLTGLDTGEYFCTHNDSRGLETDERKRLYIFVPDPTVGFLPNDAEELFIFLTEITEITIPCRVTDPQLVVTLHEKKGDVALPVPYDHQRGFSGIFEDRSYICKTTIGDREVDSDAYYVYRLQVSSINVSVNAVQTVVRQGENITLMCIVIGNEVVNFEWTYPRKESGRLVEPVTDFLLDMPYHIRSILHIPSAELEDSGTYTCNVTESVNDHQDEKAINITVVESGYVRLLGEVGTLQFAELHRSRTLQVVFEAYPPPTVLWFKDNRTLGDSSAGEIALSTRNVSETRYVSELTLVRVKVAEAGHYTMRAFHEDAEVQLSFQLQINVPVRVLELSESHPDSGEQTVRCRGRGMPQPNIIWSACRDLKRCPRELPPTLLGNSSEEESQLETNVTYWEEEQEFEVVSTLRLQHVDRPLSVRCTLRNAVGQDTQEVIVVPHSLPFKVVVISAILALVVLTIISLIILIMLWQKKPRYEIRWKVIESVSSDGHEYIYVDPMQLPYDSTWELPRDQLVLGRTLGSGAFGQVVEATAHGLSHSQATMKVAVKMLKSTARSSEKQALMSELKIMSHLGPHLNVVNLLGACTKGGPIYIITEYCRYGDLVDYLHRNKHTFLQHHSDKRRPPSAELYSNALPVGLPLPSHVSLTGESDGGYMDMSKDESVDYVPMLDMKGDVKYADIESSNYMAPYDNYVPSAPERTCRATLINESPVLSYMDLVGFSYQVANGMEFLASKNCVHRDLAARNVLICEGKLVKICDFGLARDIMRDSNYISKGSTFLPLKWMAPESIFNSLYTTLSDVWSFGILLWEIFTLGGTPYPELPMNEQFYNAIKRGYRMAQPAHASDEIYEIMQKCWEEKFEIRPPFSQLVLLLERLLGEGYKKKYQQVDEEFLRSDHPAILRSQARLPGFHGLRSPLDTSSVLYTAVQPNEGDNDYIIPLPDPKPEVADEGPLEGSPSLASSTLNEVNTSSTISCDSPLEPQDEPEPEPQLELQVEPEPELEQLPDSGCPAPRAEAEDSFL
Protocol: as §1
All cell culture media, glutamine, and fetal bovine serum can be purchased from Gibco Life Technologies (Grand Island, N.Y.) unless otherwise specified. All cells are grown in a humid atmosphere of 90-95% air and 5-10% CO2 at 37° C. All cell lines are routinely subcultured twice a week and are negative for mycoplasma as determined by the Mycotect method (Gibco).
For ELISA assays, cells (U1242, obtained from Joseph Schlessinger, NYU) are grown to 80-90% confluency in growth medium (MEM with 10% FBS, NEAA, 1 mM NaPyr and 2 mM GLN) and seeded in 96-well tissue culture plates in 0.5% serum at 25,000 to 30,000 cells per well. After overnight incubation in 0.5% serum-containing medium, cells are changed to serum-free medium and treated with test compound for 2 hr in a 5% CO2, 37° C. incubator. Cells are then stimulated with ligand for 5-10 minute followed by lysis with HNTG (20 mM Hepes, 150 mM NaCl, 10% glycerol, 5 mM EDTA, 5 mM Na3VO4, 0.2% Triton X-100, and 2 mM NaPyr). Cell lysates (0.5 mg/well in PBS) are transferred to ELISA plates previously coated with receptor-specific antibody and which had been blocked with 5% milk in TBST (50 mM Tris-HCl pH 7.2, 150 mM NaCl and 0.1% Triton X-100) at room temperature for 30 min. Lysates are incubated with shaking for 1 hour at room temperature. The plates are washed with TBST four times and then incubated with polyclonal anti-phosphotyrosine antibody at room temperature for 30 minutes. Excess anti-phosphotyrosine antibody is removed by rinsing the plate with TBST four times. Goat anti-rabbit IgG antibody is added to the ELISA plate for 30 min at room temperature followed by rinsing with TBST four more times. ABTS (100 mM citric acid, 250 mM Na2HPO4 and 0.5 mg/mL 2,2′-azino-bis(3-ethylbenzthiazoline-6-sulfonic acid)) plus H2O2 (1.2 mL 30% H2O2 to 10 mL ABTS) is added to the ELISA plates to start color development. Absorbance at 410 nm with a reference wavelength of 630 nm is recorded about 15 to 30 min after ABTS addition.

T1 sequence (P35918 20-1345): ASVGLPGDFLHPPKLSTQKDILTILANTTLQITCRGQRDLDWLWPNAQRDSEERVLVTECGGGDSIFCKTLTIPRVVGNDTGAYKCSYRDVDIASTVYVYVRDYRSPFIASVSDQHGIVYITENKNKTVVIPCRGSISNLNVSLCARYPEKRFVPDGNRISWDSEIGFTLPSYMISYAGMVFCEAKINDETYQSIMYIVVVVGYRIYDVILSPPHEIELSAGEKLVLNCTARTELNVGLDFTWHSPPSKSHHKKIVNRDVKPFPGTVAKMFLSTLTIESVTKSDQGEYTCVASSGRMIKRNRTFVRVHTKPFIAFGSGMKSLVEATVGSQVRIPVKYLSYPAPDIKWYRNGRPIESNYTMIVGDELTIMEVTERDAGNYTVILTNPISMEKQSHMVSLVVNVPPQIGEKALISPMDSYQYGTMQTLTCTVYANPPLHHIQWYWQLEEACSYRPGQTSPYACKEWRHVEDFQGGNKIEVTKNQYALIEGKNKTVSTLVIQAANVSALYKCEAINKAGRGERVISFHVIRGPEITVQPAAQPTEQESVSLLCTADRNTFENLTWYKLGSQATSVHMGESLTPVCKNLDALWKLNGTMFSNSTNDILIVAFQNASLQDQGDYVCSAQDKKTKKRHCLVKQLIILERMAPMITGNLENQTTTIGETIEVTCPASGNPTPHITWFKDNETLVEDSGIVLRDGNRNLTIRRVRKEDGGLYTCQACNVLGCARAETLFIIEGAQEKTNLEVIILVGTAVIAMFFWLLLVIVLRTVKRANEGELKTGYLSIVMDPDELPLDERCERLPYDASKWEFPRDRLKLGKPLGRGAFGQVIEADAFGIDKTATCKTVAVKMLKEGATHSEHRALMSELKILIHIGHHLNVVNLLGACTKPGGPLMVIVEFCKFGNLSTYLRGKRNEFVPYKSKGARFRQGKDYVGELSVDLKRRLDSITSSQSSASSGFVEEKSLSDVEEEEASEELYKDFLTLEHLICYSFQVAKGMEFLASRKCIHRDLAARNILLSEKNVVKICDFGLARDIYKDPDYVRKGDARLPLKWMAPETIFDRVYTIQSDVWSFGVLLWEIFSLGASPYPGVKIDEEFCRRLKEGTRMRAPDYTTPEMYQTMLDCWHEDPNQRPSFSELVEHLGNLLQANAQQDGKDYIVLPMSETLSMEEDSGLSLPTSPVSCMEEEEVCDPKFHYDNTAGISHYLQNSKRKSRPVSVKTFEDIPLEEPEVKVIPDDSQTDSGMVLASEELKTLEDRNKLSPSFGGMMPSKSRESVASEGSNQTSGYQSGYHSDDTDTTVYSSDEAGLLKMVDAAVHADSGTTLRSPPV

SMILES	IC50 (FLK-1R)	IC50 (PDGFR)
CCOC(=O)c1c(C)[nH]c(C=C2C(=O)Nc3ccc(NC(=O)c4ccc(C(=O)OC)cc4)cc32)c1C [3-(2,4-dimethyl-3-ethoxycarbonylpyrrol-5-methylidenyl)-5-(4-methoxycarbonylbenzamido)-2-indolinone]	> 10 µM	
CCOC(=O)c1c(C)[nH]c(C=C2C(=O)Nc3ccc(Br)cc32)c1C [3-(2,4-dimethyl-3-ethoxycarbonylpyrrol-5-methylidenyl)-5-bromo-2-indolinone]	4.2 µM	
CC(=O)c1[nH]c(C=C2C(=O)Nc3ccccc32)c(C)c1C [3-(2-acetyl-3,4-dimethylpyrrol-5-methylidenyl)-2-indolinone]	23.8 µM	
COC(=O)Cc1c(Cl)[nH]c(C=C2C(=O)Nc3ccccc32)c1C(=O)OC [3-(2-chloro-4-methoxycarbonyl-3-methoxycarbonylmethylpyrrol-5-methylidenyl)-2-indolinone]	> 50 µM	
CCOC(=O)c1[nH]c(C=C2C(=O)Nc3ccccc32)c(C(C)=O)c1C [3-(4-acetyl-2-ethoxycarbonyl-3-methylpyrrol-5-methylidenyl)-2-indolinone]	> 10 µM	> 10 µM
CCOC(=O)c1c[nH]c(C=C2C(=O)Nc3ccccc32)c1C [3-(4-ethoxycarbonyl-3-methylpyrrol-2-methylidenyl)-2-indolinone]	0.2 µM	> 100 µM
CCOC(=O)CCc1c(C(=O)OCC)[nH]c(C=C2C(=O)Nc3ccccc32)c1CC(=O)OCC [3-[2-ethoxycarbonyl-3-(2-ethoxycarbonylethyl)-4-ethoxycarbonylmethyl)pyrrol-5-methylidenyl)-2-indolinone]	> 10 µM	> 10 µM
Cc1c[nH]c(C=C2C(=O)Nc3ccccc32)c1CCC(=O)O [3-[3-(2-carboxyethyl-4-methylpyrrol-2-methylidenyl]-2-indolinone]	0.4 µM	
COC(=O)CCc1c[nH]c(C=C2C(=O)Nc3cc(OC)c(OC)cc32)c1C [3-[4-(2-methoxycarbonylethyl)-3-methylpyrrol-2-methylidenyl]-5,6-dimethoxy-2-indolinone]	36 µM	22.3 µM
COC(=O)CCc1c[nH]c(C=C2C(=O)Nc3ccccc32)c1C [3-[4-(2-methoxycarbonylethyl-3-methylpyrrol-2-methylidenyl]-2-indolinone]	1.1 µM	
